This is an account of results in patent US6075009A, “Neuropeptide Y analogues, compositions and methods of lowering blood pressure” (East Carolina University, priority 1995, dated 2000).

Square brackets hold non-standard residues; d marks the D form. Ends that are not written are not given here.

For the test, the system named is mean arterial pressure and heart rate. Put plainly: In vivo blood pressure and heart rate after intravenous dosing in normotensive rats. The arrangement: species or system Sprague-Dawley rats. The method, then:
Male Sprague-Dawley rats obtained from Charles River Laboratories, Wilmington, Mass., and weighing 276-300 g, were group housed at 22° C. and kept on 12 hour light/dark cycle. Food and water were provided ad lib. Animals were anesthetized with sodium pentobarbital (65 mg/kg) and under sterile conditions a one-inch incision was made in the fold of the left leg to expose the femoral blood vessels. Two lengths of PE-50 tubing filled with 10% heparin were inserted into the left femoral artery and left femoral vein for measurement of blood pressure and for drug delivery, respectively. The tubings were tunneled under the skin and exposed through the mid-scapular region. Animals were allowed at least 24 hours recovery prior to experiments. A force transducer (Spectramed Model P23XL, Grass Instruments, Quincy, Mass., USA), and tachograph (Model 7P44D, Grass Instruments) was used for recording of systolic and diastolic pressures and heart rate from the femoral artery catheter. Patency of catheters was verified by flushing with either saline or 10% heparin. A dose of either 30, 100, 500, 800 or 1000 nM/kg ([…]) of NPY27-36 (D-Tyr^27,36, D-Thr^32) (prepared as described in Example 1 above), or saline was delivered to the animal via the catheter in the left femoral vein. Changes in systolic and diastolic pressures and heart rater were recorded from the catheter in the left femoral artery over a 10 minute time interval.

Setting [1] is: i.v., 30-1000 nM/kg, normotensive Sprague-Dawley rats, recorded over 10 min.

On to “D-Tyr-Ile-Asn-Leu-Ile-D-Thr-Arg-Gln-Arg-D-Tyr-NH2 ([dY]INLI[dT]RQR[dY]-NH2; N-terminus assumed; SMILES CC[C@H](C)[C@H](NC(=O)[C@H](N)Cc1ccc(O)cc1)C(=O)N[C@@H](CC(N)=O)C(=O)N[C@@H](CC(C)C)C(=O)N[C@H](C(=O)N[C@@H](C(=O)N[C@@H](CCCNC(=N)N)C(=O)N[C@@H](CCC(N)=O)C(=O)N[C@@H](CCCNC(=N)N)C(=O)N[C@H](Cc1ccc(O)cc1)C(N)=O)[C@H](C)O)[C@@H](C)CC) [NPY27-36 (D-Tyr^27,36, D-Thr^32)]”, for which the “changes in pressure and heart rate vs saline treatment” value (i.v. doses of 30 and 100 nM/kg) is recorded as “failed to produce changes that were significantly different from saline treatment”. Besides, under “i.v. doses of 500, 800 and 1000 nM/kg”, the “mean arterial pressure vs saline-treated controls” value was “significantly different decreases in mean arterial pressure”. Moreover, the “heart rate vs saline controls” value (i.v. doses of 500 and 1000 nM/kg) was “significantly different increases in heart rate”. Under setting [1], the “heart rate, dose-response” value was “increase in heart rate” and the “mean arterial pressure, dose-response” value is reported as “dose-dependent decrease in mean arterial pressure”.
